pIC50: −log10 of the molar value. Read-outs that look alike come from different tables or passages of the source.
Molecular target: T1, full length active recombinant SYK enzyme (Homo sapiens, UniProt P43405)
T1 construct: full length active recombinant SYK enzyme (Millipore, Calif.); purchased Millipore
Assay: Inhibition of Syk tyrosine phosphorylation activity (LANCE TR-FRET)
Assay type: biochemical
Conditions: 1 nM SYK, 100 μM ATP
How it was run: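 The reaction is quenched with buffer holding Eu-anti-phosphotyrosine and streptavidin-APC, and detection runs 1 hr at room temperature. TR-FRET is read and IC50s come from non-linear regression.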

[1] = Table 3, read-out: Syk IC50 code

pIC50 (Table 4, read-out: syk IC50)	pIC50 [1]	Structure (SMILES)
6.00 to 7.00		c1cc2c(N3CCCC3)nc(Nc3ccc(N4CCNCC4)cc3)nc2[nH]1 [Example 21, N-(4-(piperazin-1-yl)phenyl)-4-(pyrrolidin-1-yl)-7H-pyrrolo[2,3-d]pyrimidin-2-amine]
	< 6.00	CC(=O)N1CCN(c2ccc(Nc3ncc(F)c(N4CCC(NC(=O)OCc5ccccc5)CC4)n3)cc2)CC1 [Example 127, Benzyl 1-(2-(4-(4-acetylpiperazin-1-yl)phenylamino)-5-fluoropyrimidin-4-yl)piperidin-4-ylcarbamate]
	< 6.00	COC(=O)C(N)C1CCN(c2nc(Nc3ccc4c(c3)CCC(=O)N4)ncc2F)CC1 (stereo not shown) [Example 135, Methyl 2-amino-2-(1-(5-fluoro-2-(2-oxo-1,2,3,4-tetrahydroquinolin-6-ylamino)pyrimidin-4-yl)piperidin-4-yl)acetate]
	7.00 to 8.00	CC(=O)N1CCN(c2ccc(Nc3ncc(Cl)c(N4CCC(CN)CC4)n3)cc2)CC1 [Example 122, 1-(4-(4-(4-(4-(aminomethyl)piperidin-1-yl)-5-chloropyrimidin-2-ylamino)phenyl)piperazin-1-yl)ethanone]
	6.00 to 7.00	CN1C(=O)CCc2cc(Nc3nc(NCc4ccccc4)c4c(C#N)c[nH]c4n3)ccc21 [Example 115, 4-(Benzylamino)-2-(1-methyl-2-oxo-1,2,3,4-tetrahydroquinolin-6-ylamino)-7H-pyrrolo[2,3-d]pyrimidine-5-carbonitrile]
	< 6.00	CC(=O)N1CCN(c2ccc(Nc3ncc(F)c(N4CCN(C(=O)CC#N)CC4)n3)cc2)CC1 [Example 137, 3-(4-(2-(4-(4-acetylpiperazin-1-yl)phenylamino)-5-fluoropyrimidin-4-yl)piperazin-1-yl)-3-oxopropanenitrile]
	6.00 to 7.00	NC(=O)c1cnc(-n2ncc3ccc(N)c(Cl)c32)nc1NC1CC1 [Example 7, 2-(6-amino-7-chloro-1H-indazol-1-yl)-4-(cyclopropylamino)pyrimidine-5-carboxamide]
	7.00 to 8.00	OC1CCN(c2ccc(Nc3nc(NC4CCC4)c4cc[nH]c4n3)cc2)CC1 [Example 56, 1-(4-(4-(cyclobutylamino)-7H-pyrrolo[2,3-d]pyrimidin-2-ylamino)phenyl)piperidin-4-ol]
< 6.00		O[C@H]1CCN(c2nc(Nc3ccc(N4CCNCC4)cc3)nc3[nH]ccc23)C1 [Example 12, (S)-1-(2-(4-(piperazin-1-yl)phenylamino)-7H-pyrrolo[2,3-d]pyrimidin-4-yl)pyrrolidin-3-ol]
	6.00 to 7.00	CC(=O)N(C)c1ccc(Nc2nc(NCCN)c3cc[nH]c3n2)cc1 [Example 64, N-(4-(4-(2-aminoethylamino)-7H-pyrrolo[2,3-d]pyrimidin-2-ylamino)phenyl)-N-methylacetamide]
6.00 to 7.00		N[C@H]1CCCN(c2nc(Nc3ccc4cn[nH]c4c3)nc3[nH]ccc23)C1 [(S)-4-(3-aminopiperidin-1-yl)-N-(1H-indazol-6-yl)-7H-pyrrolo[2,3-d]pyrimidin-2-amine]
	6.00 to 7.00	c1cc(-c2c[nH]c3nc(Nc4ccc5cn[nH]c5c4)nc(NC4CC4)c23)ccn1 [Example 43, N4-cyclopropyl-N2-(1H-indazol-6-yl)-5-(pyridin-4-yl)-7H-pyrrolo[2,3-d]pyrimidine-2,4-diamine]
	6.00 to 7.00	CS(=O)(=O)Cc1ccc(Nc2nc(NC3CCC3)c3cc[nH]c3n2)cc1 [Example 76]
	6.00 to 7.00	CC(=O)N1CCN(c2ccc(Nc3nc(NCC4CCNCC4)c4c(C#N)c[nH]c4n3)cc2)CC1 [Example 45, 2-(4-(4-acetylpiperazin-1-yl)phenylamino)-4-(piperidin-4-ylmethylamino)-7H-pyrrolo[2,3-d]pyrimidine-5-carbonitrile]
	< 6.00	Cc1cc2c(NC3CCC3)nc(Nc3ccc4cn[nH]c4c3)nc2[nH]1 [Example 59, N4-cyclobutyl-N2-(1H-indazol-6-yl)-6-methyl-7H-pyrrolo[2,3-d]pyrimidine-2,4-diamine]
	6.00 to 7.00	CC(=O)N1CCN(c2ccc(Nc3ncc(F)c(N[C@H]4CC[C@@H](N)CC4)n3)cc2)CC1 [Example 142, 1-(4-(4-(4-((1s,4s)-4-aminocyclohexylamino)-5-fluoropyrimidin-2-ylamino)phenyl)piperazin-1-yl)ethanone]
	6.00 to 7.00	CC(=O)N1CCN(c2ccc(Nc3ncc(F)c(N4CCC(CC(N)=O)CC4)n3)cc2)CC1 [Example 126, 2-(1-(2-(4-(4-acetylpiperazin-1-yl)phenylamino)-5-fluoropyrimidin-4-yl)piperidin-4-yl)acetamide]
	< 6.00	O=C(O)CC1CCN(c2nc(Nc3ccc4c(c3)CCC(=O)N4)nc3[nH]ccc23)CC1 [Example 120, 2-(1-(2-(2-oxo-1,2,3,4-tetrahydroquinolin-6-ylamino)-7H-pyrrolo[2,3-d]pyrimidin-4-yl)piperidin-4-yl)acetic acid]
< 6.00		c1cc2c(N3CCCCC3)nc(Nc3ccc(N4CCNCC4)cc3)nc2[nH]1 [Example 19, N-(4-(piperazin-1-yl)phenyl)-4-(piperidin-1-yl)-7H-pyrrolo[2,3-d]pyrimidin-2-amine]
< 6.00		CC(C)(C)OC(=O)NCC1CCN(c2nc(Nc3ccc(C(N)=O)cc3)ncc2F)CC1 [Example 30, tert-butyl (1-(2-(4-carbamoylphenylamino)-5-fluoropyrimidin-4-yl)piperidin-4-yl)methylcarbamate]
	< 6.00	NC(=O)c1c[nH]c2nc(Nc3ccc4c(c3)CCC(=O)N4)nc(NC3CC3)c12 [Example 108, 4-(cyclopropylamino)-2-(2-oxo-1,2,3,4-tetrahydroquinolin-6-ylamino)-7H-pyrrolo[2,3-d]pyrimidine-5-carboxamide]
	6.00 to 7.00	NC(=O)NCC1CCN(c2nc(Nc3ccc4c(c3)CCC(=O)N4)ncc2F)CC1 [Example 37, 1-((1-(5-fluoro-2-(2-oxo-1,2,3,4-tetrahydroquinolin-6-ylamino)pyrimidin-4-yl)piperidin-4-yl)methyl)urea]

More lines, now with the values behind:

Structure (SMILES)	pIC50 (Table 4, read-out: syk IC50)	pIC50 [1]
NCC1CCCCN1c1nc(Nc2ccc3cn[nH]c3c2)ncc1F (stereo not shown) [Example 36, N-(4-(2-(aminomethyl)piperidin-1-yl)-5-fluoropyrimidin-2-yl)-1H-indazol-6-amine]	< 6.00	
NC(=O)CC1CCN(c2nc(Nc3ccc4c(c3)CCC(=O)N4)nc3[nH]ccc23)CC1 [Example 121, 2-(1-(2-(2-oxo-1,2,3,4-tetrahydroquinolin-6-ylamino)-7H-pyrrolo[2,3-d]pyrimidin-4-yl)piperidin-4-yl)acetamide]		6.00 to 7.00
CC(=O)N1CCN(c2ccc(Nc3nc(NC4CCC(N)CC4)c4cc[nH]c4n3)cc2)CC1 (stereo not shown) [Example 66, 1-(4-(4-(4-(4-aminocyclohexylamino)-7H-pyrrolo[2,3-d]pyrimidin-2-ylamino)phenyl)piperazin-1-yl)ethanone]		7.00 to 8.00
CC(=O)N1CCN(c2ccc(Nc3ncc(F)c(N4CCC(NC(=O)CC#N)CC4)n3)cc2)CC1 [Example 136, N-(1-(2-(4-(4-acetylpiperazin-1-yl)phenylamino)-5-fluoropyrimidin-4-yl)piperidin-4-yl)-2-cyanoacetamide]		< 6.00
N#Cc1c[nH]c2nc(Nc3ccc4cn[nH]c4c3)nc(NC3CC3)c12 [Example 40, 2-(1H-indazol-6-ylamino)-4-(cyclopropylamino)-7H-pyrrolo[2,3-d]pyrimidine-5-carbonitrile]		7.00 to 8.00
CC(=O)N1CCN(c2ccc(Nc3nc(N4CC[C@H](O)C4)c4cc[nH]c4n3)cc2)CC1 [Example 13, (S)-1-(4-(4-(4-(3-hydroxypyrrolidin-1-yl)-7H-pyrrolo[2,3-d]pyrimidin-2-ylamino)phenyl)piperazin-1-yl)ethanone]	< 6.00	
CC(=O)c1c[nH]c2nc(Nc3ccc4cn[nH]c4c3)nc(NC3CC3)c12 [Example 42, 1-(2-(1H-indazol-6-ylamino)-4-(cyclopropylamino)-7H-pyrrolo[2,3-d]pyrimidin-5-yl)ethanone]		6.00 to 7.00
CNc1nc(Nc2ccc(N3CCN(C(C)=O)CC3)cc2)nc2[nH]cc(-c3ccncc3)c12 [Example 2, 1-(4-(4-(4-(methylamino)-5-(pyridin-4-yl)-7H-pyrrolo[2,3-d]pyrimidin-2-ylamino)phenyl)piperazin-1-yl)ethanone]		6.00 to 7.00
N[C@H]1CC[C@@H](Nc2nc(Nc3ccc4c(c3)CCC(=O)N4)ncc2C2CC2)CC1 [Example 144, 6-(4-((1s,4s)-4-aminocyclohexylamino)-5-cyclopropylpyrimidin-2-ylamino)-3,4-dihydroquinolin-2(1H)-one]		7.00 to 8.00
NC(=O)c1ccc(Nc2ncc(F)c(N[C@H]3CC[C@@H](N)CC3)n2)cc1 [Example 141, 4-(4-((1s,4s)-4-aminocyclohexylamino)-5-fluoropyrimidin-2-ylamino)benzamide]		6.00 to 7.00
CC(C)(CN)CNc1nc(Nc2ccc3cn[nH]c3c2)nc2[nH]ccc12 [Example 60, N4-(3-amino-2,2-dimethylpropyl)-N2-(1H-indazol-6-yl)-7H-pyrrolo[2,3-d]pyrimidine-2,4-diamine]		< 6.00
CCCCOC(C)c1c[nH]c2nc(Nc3ccc4cn[nH]c4c3)nc(NC3CC3)c12 (stereo not shown) [Example 41, 5-(1-butoxyethyl)-N4-cyclopropyl-N2-(1H-indazol-6-yl)-7H-pyrrolo[2,3-d]pyrimidine-2,4-diamine]		6.00 to 7.00
NC(=O)c1cccc(Nc2nc(Nc3ccc(N4CCNCC4)cc3)nc3[nH]ccc23)c1 [Example 95B, 3-(2-(4-(piperazin-1-yl)phenylamino)-7H-pyrrolo[2,3-d]pyrimidin-4-ylamino)benzamide]		6.00 to 7.00
N#Cc1c[nH]c2nc(Nc3ccc4c(c3)CCC(=O)N4)nc(NC3CC3)c12 [Example 103, 4-(cyclopropylamino)-2-(2-oxo-1,2,3,4-tetrahydroquinolin-6-ylamino)-7H-pyrrolo[2,3-d]pyrimidine-5-carbonitrile]		8.00 to 9.00
NC(=O)CNc1nc(Nc2ccc3cn[nH]c3c2)nc2[nH]ccc12 [Example 83, 2-(2-(1H-indazol-6-ylamino)-7H-pyrrolo[2,3-d]pyrimidin-4-ylamino)acetamide]		6.00 to 7.00

— US9139581B2 (PORTOLA PHARMACEUTICALS, INC., priority 2008, dated 2015)
